Tests used:
Type in all cases: functional, cell-based
[1] = biological target: T1, Solute carrier organic anion transporter family member 1A3 (Rattus norvegicus, UniProt P70502); assay: TP_TRANSPORTER: inhibition of MTX uptake (MTX: 0.026 uM, Folic acid: 100 uM) in OAT-K1-expressing LLC-PK1 cells; settings: pig, llc-pk1, 100 µM
T1 sequence (P70502 whole entry): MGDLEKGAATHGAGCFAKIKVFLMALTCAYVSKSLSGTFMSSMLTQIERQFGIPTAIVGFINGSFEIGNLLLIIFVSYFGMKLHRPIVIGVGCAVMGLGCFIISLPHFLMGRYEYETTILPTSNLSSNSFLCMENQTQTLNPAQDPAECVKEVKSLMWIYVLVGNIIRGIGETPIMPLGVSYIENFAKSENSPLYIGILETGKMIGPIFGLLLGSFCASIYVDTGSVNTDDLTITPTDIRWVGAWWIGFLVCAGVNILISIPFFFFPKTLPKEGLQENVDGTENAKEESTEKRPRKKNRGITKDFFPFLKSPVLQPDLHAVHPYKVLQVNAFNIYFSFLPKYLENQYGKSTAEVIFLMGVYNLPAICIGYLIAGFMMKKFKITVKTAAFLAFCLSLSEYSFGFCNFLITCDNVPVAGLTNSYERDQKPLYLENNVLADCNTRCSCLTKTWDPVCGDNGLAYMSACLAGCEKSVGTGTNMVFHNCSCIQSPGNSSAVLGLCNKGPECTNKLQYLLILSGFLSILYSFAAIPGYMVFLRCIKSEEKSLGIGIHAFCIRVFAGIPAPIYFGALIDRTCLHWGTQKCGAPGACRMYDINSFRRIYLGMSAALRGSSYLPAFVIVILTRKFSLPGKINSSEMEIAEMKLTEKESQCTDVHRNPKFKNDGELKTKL

[2] = biological target: T1, Solute carrier organic anion transporter family member 1A3; assay: TP_TRANSPORTER: inhibition of MTX uptake (MTX: 0.026 uM, BSP: 100 uM) in OAT-K1-expressing LLC-PK1 cells; settings: pig, llc-pk1, 100 µM
[3] = substrate: CN(Cc1cnc2nc(N)nc(N)c2n1)c1ccc(C(=O)N[C@@H](CCC(=O)O)C(=O)O)cc1; assay: TP_TRANSPORTER: uptake in OAT-K1-expressing LLC-PK1 cells

Molecule: Nc1nc2ncc(CNc3ccc(C(=O)N[C@@H](CCC(=O)O)C(=O)O)cc3)nc2c(=O)[nH]1 [FOLIC ACID]
- Activity [1]: inhibitor [(at a rough estimate) 35 % of control]

Molecule: O=C1OC(c2ccc(O)c(S(=O)(=O)[O-])c2)(c2ccc(O)c(S(=O)(=O)[O-])c2)c2c(Br)c(Br)c(Br)c(Br)c21.[Na+].[Na+] [SULFOBROMOPHTHALEIN SODIUM]
- Activity [2]: inhibitor [(at a rough estimate) 35 % of control]

B1: Solute carrier organic anion transporter family member 1A3 (Rattus norvegicus) (protein)
chain: MGDLEKGAATHGAGCFAKIKVFLMALTCAYVSKSLSGTFMSSMLTQIERQFGIPTAIVGFINGSFEIGNLLLIIFVSYFGMKLHRPIVIGVGCAVMGLGCFIISLPHFLMGRYEYETTILPTSNLSSNSFLCMENQTQTLNPAQDPAECVKEVKSLMWIYVLVGNIIRGIGETPIMPLGVSYIENFAKSENSPLYIGILETGKMIGPIFGLLLGSFCASIYVDTGSVNTDDLTITPTDIRWVGAWWIGFLVCAGVNILISIPFFFFPKTLPKEGLQENVDGTENAKEESTEKRPRKKNRGITKDFFPFLKSPVLQPDLHAVHPYKVLQVNAFNIYFSFLPKYLENQYGKSTAEVIFLMGVYNLPAICIGYLIAGFMMKKFKITVKTAAFLAFCLSLSEYSFGFCNFLITCDNVPVAGLTNSYERDQKPLYLENNVLADCNTRCSCLTKTWDPVCGDNGLAYMSACLAGCEKSVGTGTNMVFHNCSCIQSPGNSSAVLGLCNKGPECTNKLQYLLILSGFLSILYSFAAIPGYMVFLRCIKSEEKSLGIGIHAFCIRVFAGIPAPIYFGALIDRTCLHWGTQKCGAPGACRMYDINSFRRIYLGMSAALRGSSYLPAFVIVILTRKFSLPGKINSSEMEIAEMKLTEKESQCTDVHRNPKFKNDGELKTKL
- Km [3]: 1 µM

— ChEMBL document CHEMBL2074084, “Cloning and functional characterization of a novel rat organic anion transporter mediating basolateral uptake of methotrexate in the kidney” (J Biol Chem, 1996)
